# US10221163B2 (priority 2015, dated 2019)
# Read-outs that look alike come from different tables or passages of the source.
# Assays:
# IMP-1 = IMP-1 (Serratia marcescens, UniProt P52699); experiment: biochemical; assay type: biochemical; conditions: fluorescence assay, CCF2-FA substrate, 2 pM enzyme, 2 hours at 25° C.; read-out: IMP-1 IC50
# How it was run: (§1)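 Test compound, enzyme and the FRET cephalosporin substrate CCF2-FA are incubated together for 2 hours at 25° C. Cleavage is followed by fluorescence, and IC50 values are derived from semi-logarithmic inhibition curves fitted with a 4-parameter model.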
# NDM-1 = NDM-1 (Klebsiella pneumoniae, UniProt C7C422); experiment: biochemical; assay type: biochemical; conditions: fluorescence assay, CCF2-FA substrate, 1 pM enzyme, 2 hours at 25° C.; read-out: NDM-1 IC50
# Sequence of NDM-1 (C7C422 whole entry, looked up, species assumed): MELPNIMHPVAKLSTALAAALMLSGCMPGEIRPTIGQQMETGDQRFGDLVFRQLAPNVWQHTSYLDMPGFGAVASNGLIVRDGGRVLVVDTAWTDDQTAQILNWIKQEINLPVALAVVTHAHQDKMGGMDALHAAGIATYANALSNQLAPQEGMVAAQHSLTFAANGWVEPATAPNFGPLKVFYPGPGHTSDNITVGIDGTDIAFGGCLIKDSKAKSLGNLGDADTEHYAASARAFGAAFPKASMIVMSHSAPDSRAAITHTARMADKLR
# How it was run: as §1
# VIM-1 = VIM-1 (Pseudomonas aeruginosa (strain ATCC 15692 / DSM 22644 / CIP 104116 / JCM 14847 / LMG 12228 / 1C / PRS 101 / PAO1), UniProt A0A0F7KYQ8); experiment: biochemical; conditions: CCF2-FA substrate, 30 pM enzyme, 2 hours at 25° C.
# How it was run: as §1
# [1] = tested on: Escherichia coli expressing NDM-1 (CLB30005, CLB30016); assay type: cell-based; conditions: with imipenem 1 μg/ml; for Escherichia coli MITC95: NDM-1 strain, 95% inhibition of growth; for Escherichia coli expressing NDM-1 (CLB30016) MITC95: 95% inhibition of bacterial growth
# How it was run: (§2)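 Clinical strains grown overnight on blood agar at 35°C, colonies suspended in saline, diluted 1:100 into 1.1×CAMHB. Test compound titrated with imipenem at 1 μg/ml; incubated 22–24 h at 35°C, growth read by absorbance.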
# [2] = tested on: Klebsiella pneumoniae expressing VIM-1 (IHMA599644); assay type: cell-based; conditions: for Klebsiella pneumoniae MITC95: VIM-1 strain IHMA599644, with imipenem 1 μg/ml, 95% inhibition of growth; for Klebsiella pneumoniae expressing VIM-1 (IHMA599644) MITC95: with imipenem 1 μg/ml, 95% inhibition of bacterial growth
# How it was run: as §2
# [3] = tested on: Serratia marcescens expressing IMP-1 (CL5741); assay type: cell-based; conditions: for Serratia marcescens MITC95: IMP-1 strain CL5741, with imipenem 1 μg/ml, 95% inhibition of growth; for Serratia marcescens expressing IMP-1 (CL5741) MITC95: with imipenem 1 μg/ml, 95% inhibition of bacterial growth
# How it was run: as §2
# [4] = tested on: Pseudomonas aeruginosa efflux+ (MB9798), IMP-1; assay type: cell-based; set-up: Concentration of metallo-β-lactamase inhibitor which restores susceptibility of efflux + (MB9798) strain to imipenem: unit not given here; conditions: C, D serine β-lactamase inhibitor closely related to relebactam; for P. aeruginosa expressing IMP-1, efflux + (MB9798) MITC95: concentration restoring susceptibility to imipenem at 2 μg/mL in the presence of a class A
# How it was run: (§3)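 Microbroth MIC tests in PAO1-background strains with fixed imipenem and/or ceftazidime, usually at the CLSI breakpoint, plus fixed class A/C β-lactamase inhibitor against AmpC. MBL inhibitor titrated; concentration restoring susceptibility recorded and compared as fold difference between efflux+ MB9798 and efflux− MB9799.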
# [5] = tested on: Pseudomonas aeruginosa efflux− (MB9799), IMP-1; assay type: cell-based; conditions: C, D serine β-lactamase inhibitor closely related to relebactam; for P. aeruginosa expressing IMP-1, efflux − (MB9799) MITC95: concentration restoring susceptibility to imipenem at 2 μg/mL in the presence of a class A
# How it was run: as §3
# [6] = tested on: Pseudomonas aeruginosa MB9798 vs MB9799
# How it was run: as §3
# [7] = fluorescence assay, read-out: VIM-1 IC50
# [8] = ratio MITC95 PA_9798/MITC95 PA_9799
# Sequence of IMP-1 (P52699 whole entry, looked up, species assumed): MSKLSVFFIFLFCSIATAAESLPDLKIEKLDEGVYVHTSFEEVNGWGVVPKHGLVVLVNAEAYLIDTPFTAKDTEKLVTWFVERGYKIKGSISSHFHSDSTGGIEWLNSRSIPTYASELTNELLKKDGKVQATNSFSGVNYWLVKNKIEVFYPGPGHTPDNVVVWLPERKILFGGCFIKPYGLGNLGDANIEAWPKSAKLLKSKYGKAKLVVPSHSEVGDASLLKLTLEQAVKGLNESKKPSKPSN
Compound,IC50 (IMP-1) [nM],IC50 (NDM-1) [nM],IC50 (VIM-1; [7]) [nM],Escherichia coli MITC95 [1] [µM],Klebsiella pneumoniae MITC95 [2] [µM],Serratia marcescens MITC95 [3] [µM],"P. aeruginosa expressing IMP-1, efflux + (MB9798) MITC95 [4] [µM]","P. aeruginosa expressing IMP-1, efflux − (MB9799) MITC95 [5] [µM]","Efflux ratio [6, 8]","IC50 (VIM-1; VIM-1 IC50, fluorescence assay) [nM]",Escherichia coli expressing NDM-1 (CLB30016) MITC95 [1] [µM],Klebsiella pneumoniae expressing VIM-1 (IHMA599644) MITC95 [2] [µM],Serratia marcescens expressing IMP-1 (CL5741) MITC95 [3] [µM],"Concentration of metallo-β-lactamase inhibitor which restores susceptibility of efflux + (MB9798) strain to imipenem ([4]; efflux+ MB9798, imipenem at 2 μg/mL, in the presence of a class A)","Concentration of metallo-β-lactamase inhibitor which restores susceptibility of efflux − (MB9799) strain to imipenem ([5]; efflux− MB9799, imipenem at 2 μg/mL, in the presence of a class A)","Efflux ratio ([6]; fold difference between efflux+ (MB9798) and efflux− (MB9799) strains, imipenem at 2 μg/mL)"
"NCc1nc2cc(-c3ccc(S(=O)(=O)N[C@@H]4CCNC4)c(S(N)(=O)=O)c3-c3nn[nH]n3)ccc2[nH]1 [Example 274, (R)-4-(2-(aminomethyl)-1H-benzo[d]imidazol-5-yl)-N1-(pyrrolidin-3-yl)-3-(2H -tetrazol-5-yl)benzene-1,2-disulfonamide]",0.486,0.0833,0.102,0.7813,1.563,1.563,0.7813,0.7813,1.00,–,–,–,–,–,–,–
"Cn1nnc2ccc(-c3ccc(S(=O)(=O)N[C@@H]4CCNC4)c(S(N)(=O)=O)c3-c3nnn[nH]3)cc21 [Example 134, (R)-4-(1-methyl-1H-benzo[d][1,2,3]triazol-6-yl)-N1-(pyrrolidin-3-yl)-3-(1H-tetrazol-5-yl)benzene-1,2-disulfonamide]",2.07,0.301,–,–,–,–,25,1.563,15.99,0.14,1.563,3.125,3.125,–,–,–
"Nc1nc2c(-c3ccc(S(=O)(=O)N[C@@H]4CN[C@@H](CO)C4)c(S(N)(=O)=O)c3-c3nnn[nH]3)cccc2s1 [Example 79, 4-(2-amino-1,3-benzothiazol-4-yl)-N1-[(3S,5R)-5-(hydroxymethyl)pyrrolidin-3-yl]-3-(1H-tetrazol-5-yl)benzene-1,2-disulfonamide]",0.283,0.0427,–,–,–,–,0.7813,1.563,0.50,0.181,1.563,3.125,1.563,–,–,–
"NCCNS(=O)(=O)c1ccc(-c2cccc(SC[C@@H](O)CN)c2)c(-c2nn[nH]n2)c1S(N)(=O)=O [Example 357, (S)-5′-(3-amino-2-hydroxypropylthio)-N4-(2-aminoethyl)-2-(2H-tetrazol-5-yl)biphenyl-3,4-disulfonamide]",1.21,1.26,–,0.7813,0.7813,0.7813,0.7813,0.3906,2.00,0.224,–,–,–,–,–,–
"NCCNS(=O)(=O)c1ccc(-c2cccc3ccc(N)nc23)c(-c2nn[nH]n2)c1S(N)(=O)=O [Example 355, N1-(2-aminoethyl)-4-(2-aminoquinolin-8-yl)-3-(2H-tetrazol-5-yl)benzene-1,2-disulfonamide]",0.2,0.0509,–,0.1953,1.563,0.7813,0.7813,0.7813,1.00,0.141,–,–,–,–,–,–
"Nc1nc2c(-c3ccc(S(=O)(=O)N[C@@H]4CN[C@H](CO)C4)c(S(N)(=O)=O)c3-c3nnn[nH]3)cccc2s1 [Example 80, 4-(2-amino-1,3-benzothiazol-4-yl)-N1-[(3S,5S)-5-(hydroxymethyl)pyrrolidin-3-yl]-3-(1H-tetrazol-5-yl)benzene-1,2-disulfonamide]",0.336,0.0488,–,–,–,–,1.563,1.563,1.00,0.158,1.563,3.125,1.563,–,–,–
"NC(=O)[C@@H](N)CNS(=O)(=O)c1ccc(-c2cccc3[nH]c(N)nc23)c(-c2nn[nH]n2)c1S(N)(=O)=O [Example 189, (2S)-2-amino-3-(4-(2-amino-1H-benzo[d]imidazol-4-yl)-2-sulfamoyl-3-(2H-tetrazol-5-yl)phenylsulfonamido)propanamide]",0.615,0.0718,0.216,–,–,–,0.7813,1.563,0.50,–,0.7813,3.125,1.563,–,–,–
"C[C@H](N)Cc1nc2c(-c3ccc(S(N)(=O)=O)c(S(N)(=O)=O)c3-c3nn[nH]n3)cccc2[nH]1 [Example 442, (S)-4-(2-(2-aminopropyl)-1H-benzo[d]imidazol-4-yl)-3-(2H-tetrazol-5-yl)benzene-1,2-disulfonamide]",1.33,0.431,–,1.563,3.125,1.563,–,–,–,0.249,–,–,–,0.7813,1.563,0.50
"CN([C@H]1CCNC1)S(=O)(=O)c1ccc(-c2cccc3[nH]c(N)nc23)c(-c2nn[nH]n2)c1S(N)(=O)=O [Example 244, (S)-4-(2-amino-1H-benzo[d]imidazol-7-yl)-N1-methyl-N1-(pyrrolidin-3-yl)-3-(1H-tetrazol-5-yl)benzene-1,2-disulfonamide]",6.58,1.3,6.75,0.7813,1.563,1.563,1.563,0.7813,2.00,–,–,–,–,–,–,–
"Nc1nc2cccc(-c3ccc(S(N)(=O)=O)c(S(N)(=O)=O)c3-c3nn[nH]n3)c2[nH]1 [Example 1, 4-(2-amino-3H-benzo[d]imidazol-4-yl)-3-(2H-tetrazol-5-yl)benzene-1,2-disulfonamide]",0.581,0.0853,0.264,–,–,–,0.5573,0.8542,0.65,–,0.5156,1.448,0.8542,–,–,–
"Nc1nc2c(-c3ccc(S(=O)(=O)N[C@H]4CCNC4)c(S(N)(=O)=O)c3-c3nnn[nH]3)cccc2s1 [Example 60, 4-(2-amino-1,3-benzothiazol-4-yl)-N1-[(3S)-pyrrolidin-3-yl]-3-(1H-tetrazol-5-yl)benzene-1,2-disulfonamide]",0.679,0.0765,0.236,–,–,–,0.7813,1.563,0.50,–,3.125,3.125,1.563,–,–,–
"NC[C@@H](O)CNS(=O)(=O)c1ccc(-c2ccc(N)nc2)c(-c2nn[nH]n2)c1S(N)(=O)=O [Example 303, (R)-N1-(3-amino-2-hydroxypropyl)-4-(6-aminopyridin-3-yl)-3-(2H-tetrazol-5-yl)benzene-1,2-disulfonamide]",0.536,0.255,–,0.2197,1.953,0.5859,0.7813,0.7813,1.00,0.169,–,–,–,–,–,–
